In patent publication US4931437A, “8-azaxanthine derivatives, and pharmaceutical compositions containing them” (Malesci Istituto Farmacobiologico S.p.A., priority 1986, dated 1990):
Where two headings read alike, the source gives them in different places.

Key:
[1] = Acute toxicity (oral LD50); parameters: species or system male Swiss mice; settings: in vivo, mouse, deaths in ten days, Litchfield and Wilcoxon, limits in parentheses, max dose generally 500 mg/Kg, read-out: DL/50 (mouse os)
Method: LD50 was calculated according to Litchfield and Wilcoxon method (J. Pharm. Expt. Ther. 96, 99; 1949). The maximum dose administered was generally 500 mg/Kg.

[2] = system: heart rate and blood pressure; settings: in vivo, po
Method: Fasted (16 h) normotensive male Wistar rats weighing 300-380 g. were used. The animals were prewarmed by means of infrared lamp for 15 min. before recording blood pressure and heart rate with the tale-cuff method (Maffii G. e Coll.--Arch. It. Sci. Farm. 12, 3; 1962). Recording were performed before and 30'-90'--3 h after oral drug administration. […] The % increase in heart rate was plotted against the log dose. […] In table 2 the average value of the indexes was reported.

[3] = system: bronchospasm; assay: Antibronchospastic activity (aerosol ovalbumin, sensitized guinea pigs, oral); type: in vivo, guinea pig; settings: for Oral antibronchospastic activity (aerosol ovalbumin guinea-pig) A.U.C. 0 → 3h Index: ratio between equieffective doses of theophylline and tested compound, AUC of % inhibition 0-3 h
Method: Fasted (16 h) male and female guinea pigs were sensitized by ovalbumin (25 mg/Kg. s.c. and 25 mg/Kg. i.p.) (Herxheimer and Stresemann--Arch. It. Pharmacodyn. Ther. 125.126; 1960). After two weeks, animals were challenged, by an aerosol of 0.5% ovalbumin recording the latency time (T1) of the first bronchospasm. A week later, the test was repeated in the same animals 1-3 hours after drug administration (T2). % of inhibition was determined as [formula] where T1 was control latency time, T2 was latency time after drug administration. […] The area under curve (AUC) expressing the % inhibition plotted toward time (0-3 h) after drug dosing, was calculated.

[4] = Effects on CNS: cardiazole (CZ) induced convulsions; settings: mouse, in vivo, po
Method: (§1) Fasted (20 h) male Swiss mice (20 g b.w.) received orally the compounds 1 h before cardiazole (CZ) or chlordiazepoxide (CDO) administration.
CZ was injected i.p. in a fully convulsive dose which produced death in about 10% of animals (60-100 mg/Kg.). Appropriate dose was determined before each experimental session.
(§2) In the untreated animals, CDO 100 mg/Kg i.p. induced sleep lasting 20-30 min. Sleeping time was defined as the time elapsing from the loss to the recovery of the righting reflex. Pretreated animals were observed up to a maximum of 6 h.

[5] = Effects on CNS: sleeping time following chlordiazepoxide (CDO) treatment; settings: mouse, in vivo, po
Method: as §1, §2

CCCn1c(=O)c2c(nnn2CCN(C)C)n(CC(C)CC)c1=O (centres unmarked) [MX8271]
LD50 at 240 h [1]: > 1480 µmol/kg
Tachycardic effects (rat os) Index [2]: 0
Oral antibronchospastic activity (aerosol ovalbumin guinea-pig) A.U.C. 0 → 3h Index [3]: 1,9

CCC(C)Cn1c(=O)[nH]c(=O)c2c1nnn2CCN(CC)CC (centres unmarked) [MX82108]
LD50 at 240 h [1]: > 1550 µmol/kg
Tachycardic effects (rat os) Index [2]: 0
Oral antibronchospastic activity (aerosol ovalbumin guinea-pig) A.U.C. 0 → 3h Index [3]: 1,3

Cn1c(=O)c2[nH]cnc2n(C)c1=O [THEOPHYLLINE, 1.3-dimethylxanthine, reference compound]
ED50 [4]: 150 µmol/kg
blood pressure effect ([2]; rat): slight hypotension
heart rate effect ([2]; rat): marked dose-dependent tachycardia
dosage producing a 30% increase in heart rate ([2]; rat, 30 min): 0.21 mmol/kg
dosage producing a 30% increase in heart rate ([2]; rat, 90 min): 0.36 mmol/kg
dosage producing a 30% increase in heart rate ([2]; rat, 180 min): 0.57 mmol/kg
ED50 [5]: 75 µmol/kg
ED50 ([3]; Cavia porcellus, po, guinea pig, 0.5% ovalbumin aerosol, read-out: ED50, inhibition of bronchoconstriction): 250 µmol/kg

CCCn1c(=O)c2c(nnn2CCN(CC)CC)n(-c2ccccc2)c1=O [MX8257]
LD50 at 240 h [1]: > 1350 µmol/kg
Tachycardic effects (rat os) Index [2]: 0
Oral antibronchospastic activity (aerosol ovalbumin guinea-pig) A.U.C. 0 → 3h Index [3]: 1,8

CCCn1c(=O)c2nn(CCN3CCOCC3)nc2n(-c2ccccc2)c1=O [MX82106, 1-n-propyl-3-phenyl-8-(2-morpholinoethyl)-8-azaxanthine]
LD50 at 240 h [1]: > 1300 µmol/kg
Tachycardic effects (rat os) Index [2]: 0
Oral antibronchospastic activity (aerosol ovalbumin guinea-pig) A.U.C. 0 → 3h Index [3]: 2,9

CCC(C)Cn1c(=O)[nH]c(=O)c2nn(CCN(CC)CC)nc21 (centres unmarked) [MX82109]
LD50 at 240 h [1]: > 1550 µmol/kg
Tachycardic effects (rat os) Index [2]: 0,3
Oral antibronchospastic activity (aerosol ovalbumin guinea-pig) A.U.C. 0 → 3h Index [3]: 1,1

CCCn1c(=O)c2nn(CCN3CCCCC3)nc2n(-c2ccccc2)c1=O [MX82104]
LD50 at 240 h [1]: 1310 µmol/kg
Tachycardic effects (rat os) Index [2]: 0
Oral antibronchospastic activity (aerosol ovalbumin guinea-pig) A.U.C. 0 → 3h Index [3]: 2,1

CCCn1c(=O)c2c(nnn2CCN2CCCCC2)n(-c2ccccc2)c1=O [MX82103]
LD50 at 240 h [1]: 910 µmol/kg
Tachycardic effects (rat os) Index [2]: 0
Oral antibronchospastic activity (aerosol ovalbumin guinea-pig) A.U.C. 0 → 3h Index [3]: 1,7

CCCn1c(=O)c2c(nnn2CCN2CCOCC2)n(-c2ccccc2)c1=O [MX82105, 1-n-propyl-3-phenyl-7-(2-morpholinoethyl)-8-azaxanthine]
LD50 at 240 h [1]: > 1300 µmol/kg
Tachycardic effects (rat os) Index [2]: 0
Oral antibronchospastic activity (aerosol ovalbumin guinea-pig) A.U.C. 0 → 3h Index [3]: 2,4

CCCn1c(=O)c2nn(CCN(CC)CC)nc2n(-c2ccccc2)c1=O [MX8258]
LD50 at 240 h [1]: > 1350 µmol/kg
Tachycardic effects (rat os) Index [2]: 0
Oral antibronchospastic activity (aerosol ovalbumin guinea-pig) A.U.C. 0 → 3h Index [3]: 1,6

CCCn1c(=O)c2nn(CCN(C)C)nc2n(CC(C)CC)c1=O (centres unmarked) [MX8272]
LD50 at 240 h [1]: 1370 µmol/kg
Tachycardic effects (rat os) Index [2]: 0
Oral antibronchospastic activity (aerosol ovalbumin guinea-pig) A.U.C. 0 → 3h Index [3]: 2,1
